Data reported in ChEMBL document CHEMBL4507260 (2021).

Tests used:
Settings in all cases: Compound concentration 1000.0 nM
[1] = target: Mitogen-activated protein kinase kinase kinase kinase 1 (Homo sapiens) (UniProt Q92918)
[2] = target: Serine/threonine-protein kinase 26 (Homo sapiens) (UniProt Q9P289)
[3] = target: Calcium-dependent protein kinase 1 (Plasmodium falciparum) (UniProt P62344)
[4] = tested on: Phosphatidylinositol 4,5-bisphosphate 3-kinase catalytic subunit alpha isoform (Homo sapiens), P42336 [E545A]
[5] = target: TRAF2 and NCK-interacting protein kinase (Homo sapiens) (UniProt Q9UKE5)
[6] = target: Tyrosine-protein kinase Lyn (Homo sapiens) (UniProt P07948)
[7] = target: Cytoplasmic tyrosine-protein kinase BMX (Homo sapiens) (UniProt P51813)
[8] = tested on: Mast/stem cell growth factor receptor Kit (Homo sapiens), P10721 [D816H]
[9] = target: Megakaryocyte-associated tyrosine-protein kinase (Homo sapiens) (UniProt P42679)
[10] = target: Mitogen-activated protein kinase kinase kinase 2 (Homo sapiens) (UniProt Q9Y2U5)
[11] = target: Serine/threonine-protein kinase PLK2 (Homo sapiens) (UniProt Q9NYY3)
[12] = target: Protein kinase C epsilon type (Homo sapiens) (UniProt Q02156)
[13] = target: Dual specificity mitogen-activated protein kinase kinase 3 (Homo sapiens) (UniProt P46734)
[14] = target: Serine/threonine-protein kinase Sgk3 (Homo sapiens) (UniProt Q96BR1)
[15] = target: Tyrosine-protein kinase ABL1 (Homo sapiens) (UniProt P00519)
[16] = target: Serine/threonine-protein kinase N1 (Homo sapiens) (UniProt Q16512)
[17] = target: Tyrosine-protein kinase JAK1 (Homo sapiens) (UniProt P23458)
[18] = target: RAC-beta serine/threonine-protein kinase (Homo sapiens) (UniProt P31751)
[19] = target: Serine/threonine-protein kinase 32C (Homo sapiens) (UniProt Q86UX6)
[20] = target: Serine/threonine-protein kinase SBK1 (Homo sapiens) (UniProt Q52WX2)
[21] = target: MAP kinase-interacting serine/threonine-protein kinase 2 (Homo sapiens) (UniProt Q9HBH9)
[22] = target: Ephrin type-A receptor 2 (Homo sapiens) (UniProt P29317)
[23] = target: Serine/threonine-protein kinase TAO1 (Homo sapiens) (UniProt Q7L7X3)
[24] = target: Dual serine/threonine and tyrosine protein kinase (Homo sapiens) (UniProt Q6XUX3)
Sequence of Dual serine/threonine and tyrosine protein kinase (Homo sapiens) (Q6XUX3 whole entry): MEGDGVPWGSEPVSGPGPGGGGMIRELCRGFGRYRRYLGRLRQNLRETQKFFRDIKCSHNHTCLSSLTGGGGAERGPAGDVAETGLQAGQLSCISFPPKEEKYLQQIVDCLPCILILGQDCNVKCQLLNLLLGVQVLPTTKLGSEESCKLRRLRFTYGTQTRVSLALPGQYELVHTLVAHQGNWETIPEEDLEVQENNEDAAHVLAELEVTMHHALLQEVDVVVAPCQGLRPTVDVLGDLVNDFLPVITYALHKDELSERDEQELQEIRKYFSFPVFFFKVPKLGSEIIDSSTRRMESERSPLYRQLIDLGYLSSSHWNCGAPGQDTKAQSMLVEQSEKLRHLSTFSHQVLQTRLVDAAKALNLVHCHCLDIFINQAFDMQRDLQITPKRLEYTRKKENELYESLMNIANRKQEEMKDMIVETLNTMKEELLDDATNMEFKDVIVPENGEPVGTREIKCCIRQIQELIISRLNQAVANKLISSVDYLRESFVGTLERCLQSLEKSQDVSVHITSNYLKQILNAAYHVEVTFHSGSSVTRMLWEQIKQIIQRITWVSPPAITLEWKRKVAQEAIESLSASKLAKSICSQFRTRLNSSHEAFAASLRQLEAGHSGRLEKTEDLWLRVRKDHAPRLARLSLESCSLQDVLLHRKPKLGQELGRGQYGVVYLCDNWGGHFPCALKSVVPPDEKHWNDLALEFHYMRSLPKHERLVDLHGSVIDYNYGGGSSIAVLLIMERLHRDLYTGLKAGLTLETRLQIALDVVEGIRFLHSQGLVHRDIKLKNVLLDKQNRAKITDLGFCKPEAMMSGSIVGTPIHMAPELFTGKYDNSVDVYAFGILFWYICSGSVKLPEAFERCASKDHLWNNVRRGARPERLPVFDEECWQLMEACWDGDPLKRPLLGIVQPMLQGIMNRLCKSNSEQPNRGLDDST

[25] = target: Protein-tyrosine kinase 6 (Homo sapiens) (UniProt Q13882)
[26] = target: Eukaryotic translation initiation factor 2-alpha kinase 1 (Homo sapiens) (UniProt Q9BQI3)
[27] = tested on: Phosphatidylinositol 4,5-bisphosphate 3-kinase catalytic subunit alpha isoform (Homo sapiens), P42336 [I800L]
Sequence of Phosphatidylinositol 4,5-bisphosphate 3-kinase catalytic subunit alpha isoform (Homo sapiens), P42336 [I800L] (P42336 whole entry I800L, canonical isoform): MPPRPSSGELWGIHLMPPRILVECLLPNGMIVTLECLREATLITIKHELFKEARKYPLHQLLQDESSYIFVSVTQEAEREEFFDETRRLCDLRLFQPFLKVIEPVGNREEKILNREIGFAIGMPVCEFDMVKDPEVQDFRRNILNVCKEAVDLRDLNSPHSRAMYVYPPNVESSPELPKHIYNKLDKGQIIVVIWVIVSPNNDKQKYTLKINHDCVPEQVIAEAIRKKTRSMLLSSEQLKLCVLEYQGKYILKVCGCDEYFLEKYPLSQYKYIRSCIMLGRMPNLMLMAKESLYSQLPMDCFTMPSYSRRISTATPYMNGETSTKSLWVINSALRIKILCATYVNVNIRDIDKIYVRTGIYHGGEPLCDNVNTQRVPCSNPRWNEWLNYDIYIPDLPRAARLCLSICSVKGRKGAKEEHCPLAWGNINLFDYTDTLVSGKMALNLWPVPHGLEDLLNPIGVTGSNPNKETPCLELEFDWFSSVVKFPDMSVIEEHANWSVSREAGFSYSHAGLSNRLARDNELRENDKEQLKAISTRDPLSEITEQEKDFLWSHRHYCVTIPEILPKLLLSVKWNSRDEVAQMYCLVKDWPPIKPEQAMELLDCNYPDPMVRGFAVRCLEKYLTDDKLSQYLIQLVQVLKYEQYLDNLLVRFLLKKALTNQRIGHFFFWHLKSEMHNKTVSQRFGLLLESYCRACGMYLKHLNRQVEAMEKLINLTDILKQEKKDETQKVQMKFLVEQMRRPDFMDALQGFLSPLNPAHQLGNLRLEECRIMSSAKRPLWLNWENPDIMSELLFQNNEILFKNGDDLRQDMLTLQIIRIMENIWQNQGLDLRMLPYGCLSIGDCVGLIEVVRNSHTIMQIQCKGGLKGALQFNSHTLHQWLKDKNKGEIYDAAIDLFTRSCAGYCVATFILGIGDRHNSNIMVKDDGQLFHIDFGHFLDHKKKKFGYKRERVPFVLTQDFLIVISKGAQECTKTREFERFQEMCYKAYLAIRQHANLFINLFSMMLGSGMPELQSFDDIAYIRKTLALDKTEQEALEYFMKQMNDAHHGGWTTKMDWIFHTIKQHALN

[28] = target: Inhibitor of nuclear factor kappa-B kinase subunit epsilon (Homo sapiens) (UniProt Q14164)
[29] = target: Serine/threonine-protein kinase haspin (Homo sapiens) (UniProt Q8TF76)
[30] = target: Cyclin-dependent kinase 9 (Homo sapiens) (UniProt P50750)
[31] = tested on: Leucine-rich repeat serine/threonine-protein kinase 2 (Homo sapiens), Q5S007 [G2019S]
Sequence of Leucine-rich repeat serine/threonine-protein kinase 2 (Homo sapiens), Q5S007 [G2019S] (Q5S007 whole entry G2019S): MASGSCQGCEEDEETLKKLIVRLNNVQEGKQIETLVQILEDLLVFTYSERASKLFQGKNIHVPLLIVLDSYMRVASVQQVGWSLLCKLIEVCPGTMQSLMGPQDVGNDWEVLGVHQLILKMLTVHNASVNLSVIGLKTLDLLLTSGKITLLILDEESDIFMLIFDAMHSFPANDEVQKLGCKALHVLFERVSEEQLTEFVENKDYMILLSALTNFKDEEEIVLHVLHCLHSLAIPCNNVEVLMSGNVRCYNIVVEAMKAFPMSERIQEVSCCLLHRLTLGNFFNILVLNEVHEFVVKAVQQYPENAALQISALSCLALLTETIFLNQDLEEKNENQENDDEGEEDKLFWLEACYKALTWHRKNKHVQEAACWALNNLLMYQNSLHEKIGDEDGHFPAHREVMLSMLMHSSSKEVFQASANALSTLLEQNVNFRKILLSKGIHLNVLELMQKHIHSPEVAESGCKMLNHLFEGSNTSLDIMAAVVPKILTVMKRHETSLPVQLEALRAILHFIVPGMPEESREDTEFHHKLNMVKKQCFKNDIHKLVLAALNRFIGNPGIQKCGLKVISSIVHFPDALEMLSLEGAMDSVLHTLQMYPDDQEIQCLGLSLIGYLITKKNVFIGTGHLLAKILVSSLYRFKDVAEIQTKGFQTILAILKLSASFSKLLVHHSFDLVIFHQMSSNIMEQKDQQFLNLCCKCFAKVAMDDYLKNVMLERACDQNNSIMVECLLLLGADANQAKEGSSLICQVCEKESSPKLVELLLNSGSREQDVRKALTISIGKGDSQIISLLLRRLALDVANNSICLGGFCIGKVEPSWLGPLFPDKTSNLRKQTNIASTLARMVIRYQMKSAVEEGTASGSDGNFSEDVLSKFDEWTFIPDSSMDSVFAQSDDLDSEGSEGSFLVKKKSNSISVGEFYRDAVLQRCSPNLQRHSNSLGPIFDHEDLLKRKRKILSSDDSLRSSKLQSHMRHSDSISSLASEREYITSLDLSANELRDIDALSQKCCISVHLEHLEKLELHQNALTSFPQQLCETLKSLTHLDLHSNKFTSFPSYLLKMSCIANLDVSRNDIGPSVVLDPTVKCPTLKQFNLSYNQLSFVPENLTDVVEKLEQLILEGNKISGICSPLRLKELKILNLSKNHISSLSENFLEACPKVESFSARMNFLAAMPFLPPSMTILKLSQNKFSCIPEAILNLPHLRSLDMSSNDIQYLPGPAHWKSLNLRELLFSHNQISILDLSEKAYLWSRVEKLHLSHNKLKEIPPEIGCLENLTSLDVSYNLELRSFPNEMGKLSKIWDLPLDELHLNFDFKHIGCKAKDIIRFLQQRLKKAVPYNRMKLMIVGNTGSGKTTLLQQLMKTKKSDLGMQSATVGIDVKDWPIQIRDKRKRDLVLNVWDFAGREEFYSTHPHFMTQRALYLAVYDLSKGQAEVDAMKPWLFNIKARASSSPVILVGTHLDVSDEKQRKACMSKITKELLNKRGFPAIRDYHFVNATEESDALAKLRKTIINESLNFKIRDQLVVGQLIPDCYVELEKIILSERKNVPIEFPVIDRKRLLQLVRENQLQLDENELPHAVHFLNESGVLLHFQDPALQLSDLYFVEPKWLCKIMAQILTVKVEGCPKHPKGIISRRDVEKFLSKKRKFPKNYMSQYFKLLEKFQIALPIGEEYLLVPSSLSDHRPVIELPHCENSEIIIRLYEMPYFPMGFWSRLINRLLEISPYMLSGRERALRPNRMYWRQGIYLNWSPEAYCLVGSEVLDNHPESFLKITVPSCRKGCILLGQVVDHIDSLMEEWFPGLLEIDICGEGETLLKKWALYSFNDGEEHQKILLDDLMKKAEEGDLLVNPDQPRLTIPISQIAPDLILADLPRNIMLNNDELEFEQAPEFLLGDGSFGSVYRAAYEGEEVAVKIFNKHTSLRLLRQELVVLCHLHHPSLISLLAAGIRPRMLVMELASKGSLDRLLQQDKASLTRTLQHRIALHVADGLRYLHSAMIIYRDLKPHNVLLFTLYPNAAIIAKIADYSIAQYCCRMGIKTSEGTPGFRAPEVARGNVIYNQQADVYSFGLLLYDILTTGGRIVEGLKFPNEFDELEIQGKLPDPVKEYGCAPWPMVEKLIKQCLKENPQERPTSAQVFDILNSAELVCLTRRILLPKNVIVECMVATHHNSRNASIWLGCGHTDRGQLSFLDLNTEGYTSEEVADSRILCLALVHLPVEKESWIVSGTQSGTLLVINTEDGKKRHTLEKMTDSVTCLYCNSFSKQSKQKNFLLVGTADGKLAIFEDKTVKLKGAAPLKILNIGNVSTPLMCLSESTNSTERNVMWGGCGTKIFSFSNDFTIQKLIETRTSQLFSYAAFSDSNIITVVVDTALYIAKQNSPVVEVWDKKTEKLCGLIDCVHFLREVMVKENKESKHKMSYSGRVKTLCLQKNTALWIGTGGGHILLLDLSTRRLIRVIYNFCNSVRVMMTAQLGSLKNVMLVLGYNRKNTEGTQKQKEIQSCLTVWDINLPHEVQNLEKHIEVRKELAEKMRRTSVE

[32] = target: Serine/threonine-protein kinase PLK4 (Homo sapiens) (UniProt O00444)
[33] = target: Platelet-derived growth factor receptor alpha (Homo sapiens) (UniProt P16234)
[34] = target: Mitogen-activated protein kinase 11 (Homo sapiens) (UniProt Q15759)
[35] = target: Interleukin-1 receptor-associated kinase 3 (Homo sapiens) (UniProt Q9Y616)
[36] = target: cAMP-dependent protein kinase catalytic subunit alpha (Homo sapiens) (UniProt P17612)
[37] = target: Ephrin type-A receptor 4 (Homo sapiens) (UniProt P54764)
[38] = target: Homeodomain-interacting protein kinase 2 (Homo sapiens) (UniProt Q9H2X6)
[39] = tested on: Phosphatidylinositol 4,5-bisphosphate 3-kinase catalytic subunit alpha isoform (Homo sapiens), P42336 [Q546K]
[40] = target: Dual specificity testis-specific protein kinase 1 (Homo sapiens) (UniProt Q15569)
[41] = target: Receptor tyrosine-protein kinase erbB-2 (Homo sapiens) (UniProt P04626)
[42] = tested on: Hepatocyte growth factor receptor (Homo sapiens), P08581 [Y1235D]
[43] = target: Cyclin-dependent kinase-like 2 (Homo sapiens) (UniProt Q92772)
[44] = target: Calcium/calmodulin-dependent protein kinase type 1G (Homo sapiens) (UniProt Q96NX5)
[45] = target: Casein kinase I isoform gamma-1 (Homo sapiens) (UniProt Q9HCP0)

Sequence of Serine/threonine-protein kinase 26 (Homo sapiens) (Q9P289 2-416 limits assumed): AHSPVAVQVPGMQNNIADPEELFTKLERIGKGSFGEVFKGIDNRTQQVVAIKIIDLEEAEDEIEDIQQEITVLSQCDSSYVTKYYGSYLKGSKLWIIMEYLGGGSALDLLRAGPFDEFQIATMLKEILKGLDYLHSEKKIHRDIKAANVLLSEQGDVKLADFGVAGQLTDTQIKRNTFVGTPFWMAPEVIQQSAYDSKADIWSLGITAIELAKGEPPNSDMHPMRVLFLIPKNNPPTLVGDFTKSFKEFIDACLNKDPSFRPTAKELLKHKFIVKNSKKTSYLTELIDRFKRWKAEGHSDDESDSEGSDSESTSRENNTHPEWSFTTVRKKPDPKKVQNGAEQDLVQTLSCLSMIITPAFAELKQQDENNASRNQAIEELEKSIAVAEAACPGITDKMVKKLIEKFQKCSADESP

SMILES: CSc1cccnc1N1CCN(Cc2nc3ccccc3[nH]2)CC1 [A-769]
- residual activity [1]: 100%
- residual activity [2]: 95%
- residual activity [3]: 89%
- residual activity [4]: 96%
- residual activity [5]: 100%
- residual activity [6]: 95%
- residual activity [7]: 100%
- residual activity [8]: 100%
- residual activity [9]: 45%
- residual activity [10]: 82%
- residual activity [11]: 71%
- residual activity [12]: 77%
- residual activity [13]: 100%
- residual activity [14]: 95%
- residual activity [15]: 70%
- residual activity [16]: 100%
- residual activity [17]: 100%
- residual activity [18]: 98%
- residual activity [19]: 71%
- residual activity [20]: 99%
- residual activity [21]: 75%
- residual activity [22]: 100%
- residual activity [23]: 100%
- residual activity [24]: 76%
- residual activity [25]: 88%
- residual activity [26]: 93%
- residual activity [27]: 77%
- residual activity [28]: 81%
- residual activity [29]: 100%
- residual activity [30]: 97%
- residual activity [31]: 92%
- residual activity [32]: 84%
- residual activity [33]: 89%
- residual activity [34]: 100%
- residual activity [35]: 94%
- residual activity [36]: 92%
- residual activity [37]: 100%
- residual activity [38]: 62%
- residual activity [39]: 84%
- residual activity [40]: 100%
- residual activity [41]: 88%
- residual activity [42]: 89%
- residual activity [43]: 84%
- residual activity [44]: 100%
- residual activity [45]: 100%

SMILES: c1ccc(N2CCN(Cc3nc4ccccc4[nH]3)CC2)nc1 [ABT-724]
- residual activity [1]: 100%
- residual activity [2]: 100%
- residual activity [3]: 99%
- residual activity [4]: 87%
- residual activity [5]: 100%
- residual activity [6]: 100%
- residual activity [7]: 100%
- residual activity [8]: 100%
- residual activity [9]: 100%
- residual activity [10]: 100%
- residual activity [11]: 100%
- residual activity [12]: 100%
- residual activity [13]: 96%
- residual activity [14]: 100%
- residual activity [15]: 80%
- residual activity [16]: 88%
- residual activity [17]: 91%
- residual activity [18]: 100%
- residual activity [19]: 100%
- residual activity [20]: 100%
- residual activity [21]: 100%
- residual activity [22]: 100%
- residual activity [23]: 100%
- residual activity [24]: 100%
- residual activity [25]: 100%
- residual activity [26]: 100%
- residual activity [27]: 78%
- residual activity [28]: 100%
- residual activity [29]: 100%
- residual activity [30]: 100%
- residual activity [31]: 100%
- residual activity [32]: 99%
- residual activity [33]: 100%
- residual activity [34]: 88%
- residual activity [35]: 100%
- residual activity [36]: 91%
- residual activity [37]: 100%
- residual activity [38]: 26%
- residual activity [39]: 100%
- residual activity [40]: 97%
- residual activity [41]: 78%
- residual activity [42]: 100%
- residual activity [43]: 100%
- residual activity [44]: 100%
- residual activity [45]: 100%
